Data on 23 compounds can be found in patent US20230382925A1, “MODULATORS OF CYSTIC FIBROSIS TRANSMEMBRANE CONDUCTANCE REGULATOR” (VERTEX PHARMACEUTICALS INCORPORATED, priority 2020, published 2023).

Like-named read-outs stand apart in the source and are kept apart here.

In this test the target is CFTR (Homo sapiens, UniProt P13569). As to the kind of experiment: Membrane Potential Dye, Enteroid Assay B. Type of test: cell-based. As for the experimental part:
Base medium (ADF+++) consisted of Advanced […], 2 mM Glutamax, 10 mM HEPES, 1 μg/mL penicillin/streptomycin.
Intestinal enteroid maintenance medium (IEMMN) consisted of ADF+++, 1× B27 supplement, 1× N2 supplement, 1.25 mM N-acetyl cysteine, 10 mM Nicotinamide, 50 ng/mL hEGF, 10 nM Gastrin, 1 μg/mL hR-spondin-1, 100 ng/mL hNoggin, TGF-b type 1 inhibitor A-83-01, 100 μg/mL Primocin, 10 μM P38 MAPK inhibitor SB202190.
Bath 1 Buffer consisted of 1 mM MgCl2, 160 mM NaCl, 4.5 mM KCl, 10 mM HEPES, 10 mM Glucose, 2 mM CaCl2).
Chloride Free Buffer consisted of 1 mM Magnesium Gluconate, 2 mM Calcium Gluconate, 4.5 mM Potassium Gluconate, 160 mM Sodium Gluconate, 10 mM HEPES, 10 mM Glucose.
Bath 1 Dye Solution consisted of Bath 1 Buffer, 0.04% Pluronic F127, 20 μM Methyl Oxonol, 30 μM CaCCinh-A01, 30 μM Chicago Sky Blue.
Chloride Free Dye Solution consisted of Chloride Free Buffer, 0.04% Pluronic F127, 20 μM Methyl Oxonol, 30 μM CaCCinh-A01, 30 μM Chicago Sky Blue.
Chloride Free Dye Stimulation Solution consisted of Chloride Free Dye Solution, 10 μM forskolin, 100 μM IBMX, and 300 nM Compound III.
Human intestinal epithelial enteroid cells were obtained from the Hubrecht Institute for Developmental Biology and Stem Cell Research, Utrecht, The Netherlands and expanded in T-Flasks as previously described (Dekkers J F, Wiegerinck C L, de Jonge H R, Bronsveld I, Janssens H M, de Winter-de Groot K M, Brandsma A M, de Jong N W M, Bijvelds M J C, Scholte B J, Nieuwenhuis E E S, van den Brink S, Clevers H, van der Ent C K, Middendorp S and M Beekman J M. A functional CFTR assay using primary cystic fibrosis intestinal organoids. Nat Med. 2013 July; 19(7):939-45.).
3. Enteroid Cell Harvesting and Seeding
Cells were recovered in cell recovery solution, collected by centrifugation at 650 rpm for 5 min at 4° C., resuspended in TrypLE and incubated for 5 min at 37° C. Cells were then collected by centrifugation at 650 rpm for 5 min at 4° C. and resuspended in IEMM containing 10 μM ROCK inhibitor (RI). The cell suspension was passed through a 40 μm cell strainer and resuspended at 1×10^6 cells/mL in IEMM containing 10 μM RI. Cells were seeded at 5000 cells/well into multi-well plates and incubated for overnight at 37° C., 95% humidity and 5% CO2 prior to assay.
5. Membrane Potential Dye, Enteroid Assay B
Enteroid cells were incubated with test compound in IEMM for 18-24 hours at 37° C., 95% humidity and 5% CO2. […] Briefly, cells were washed 5 times in Bath 1 Buffer. Bath 1 Dye Solution was added and the cells were incubated for 25 min at room temperature. Following dye incubation, cells were washed 3 times in Chloride Free Dye Solution. Chloride transport was initiated by addition of Chloride Free Dye Stimulation Solution and the fluorescence signal was read for 15 min. […] Chloride transport was then expressed as a percentage of the chloride transport following treatment with 1 μM (14S)-8-[3-(2-{Dispiro[2.0.2.1]heptan-7-yl}ethoxy)-1H-pyrazol-1-yl]-12,12-dimethyl-2λ^6-thia-3,9,11,18,23-pentaazatetracyclo[17.3.1.111,14.05,10]tetracosa-1(22),5,7,9,19(23),20-hexaene-2,2,4-trione, 3 μM (R)-1-(2,2-difluorobenzo[d][1,3]dioxol-5-yl)-N-(1-(2,3-dihydroxypropyl)-6-fluoro-2-(1-hydroxy-2-methylpropan-2-yl)-1H-indol-5-yl)cyclopropanecarboxamide and 300 nM acute N-[2,4-bis(1,1-dimethylethyl)-5-hydroxyphenyl]-1,4-dihydro-4-oxoquinoline-3-carboxamide triple combination control (% Activity).

The mark [1] stands for this setting: Table 10, read-out: Ent. B EC50.

Sequence of CFTR (P13569 with tags, fused parts or gaps DEL508-508): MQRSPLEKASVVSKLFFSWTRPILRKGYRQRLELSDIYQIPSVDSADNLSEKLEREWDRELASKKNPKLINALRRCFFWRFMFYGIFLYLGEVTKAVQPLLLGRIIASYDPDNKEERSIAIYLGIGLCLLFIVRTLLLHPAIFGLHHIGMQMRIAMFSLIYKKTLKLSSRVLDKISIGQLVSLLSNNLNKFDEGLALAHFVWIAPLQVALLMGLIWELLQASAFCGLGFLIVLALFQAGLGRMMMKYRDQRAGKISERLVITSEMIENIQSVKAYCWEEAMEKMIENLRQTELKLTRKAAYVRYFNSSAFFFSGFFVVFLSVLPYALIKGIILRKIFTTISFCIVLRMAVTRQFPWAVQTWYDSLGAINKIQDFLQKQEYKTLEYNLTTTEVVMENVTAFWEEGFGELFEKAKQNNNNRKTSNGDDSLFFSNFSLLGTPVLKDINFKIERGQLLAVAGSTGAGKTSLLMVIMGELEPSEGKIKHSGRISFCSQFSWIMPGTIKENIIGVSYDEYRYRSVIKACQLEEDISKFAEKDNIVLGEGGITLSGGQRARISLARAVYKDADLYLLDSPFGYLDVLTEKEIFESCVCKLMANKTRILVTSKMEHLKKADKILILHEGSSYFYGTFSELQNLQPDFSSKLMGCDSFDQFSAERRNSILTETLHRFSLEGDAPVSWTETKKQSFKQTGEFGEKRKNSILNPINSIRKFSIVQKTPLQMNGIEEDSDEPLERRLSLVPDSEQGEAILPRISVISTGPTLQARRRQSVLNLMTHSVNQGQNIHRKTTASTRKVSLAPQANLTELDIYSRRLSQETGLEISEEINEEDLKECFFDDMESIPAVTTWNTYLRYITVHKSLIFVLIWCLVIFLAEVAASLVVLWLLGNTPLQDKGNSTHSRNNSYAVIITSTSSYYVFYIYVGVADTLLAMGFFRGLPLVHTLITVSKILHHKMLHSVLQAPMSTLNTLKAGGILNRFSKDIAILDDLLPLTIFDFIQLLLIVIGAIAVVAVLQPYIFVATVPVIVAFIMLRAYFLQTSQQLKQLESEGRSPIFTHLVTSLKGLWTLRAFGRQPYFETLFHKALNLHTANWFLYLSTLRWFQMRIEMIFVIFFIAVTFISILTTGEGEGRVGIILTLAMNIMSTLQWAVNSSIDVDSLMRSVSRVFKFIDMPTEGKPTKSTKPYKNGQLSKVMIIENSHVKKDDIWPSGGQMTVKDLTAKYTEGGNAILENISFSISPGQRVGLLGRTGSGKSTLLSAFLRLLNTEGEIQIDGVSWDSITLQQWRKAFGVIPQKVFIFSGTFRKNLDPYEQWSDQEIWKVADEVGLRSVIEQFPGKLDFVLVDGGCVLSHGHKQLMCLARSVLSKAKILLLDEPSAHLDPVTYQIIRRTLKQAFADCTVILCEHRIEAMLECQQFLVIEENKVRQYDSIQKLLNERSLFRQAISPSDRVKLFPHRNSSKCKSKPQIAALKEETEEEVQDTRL

For the compound `Cc1cccc(C)c1-c1cc2nc(n1)NS(=O)(=O)c1cccc(c1)C(=O)N(C1CC(OC(=O)N(C)C)C1)[C@H](CC(C)C)CO2` (stereo partly drawn) [Compound 48, [3-[(11R)-6-(2,6-dimethylphenyl)-11-isobutyl-2,2,13-trioxo-9-oxa-2λ^6-thia-3,5,12,19-tetrazatricyclo[12.3.1.14,8]nonadeca-1(18),4(19),5,7,14,16-hexaen-12-yl]cyclobutyl] N,N-dimethylcarbamate], the “Ent. B Max Activity (%)” value (Table 10) was “++ (++ is 30-60%)”. The EC50 under setting [1] was < 1000 nM.

`[H][C@]1(N2C(=O)c3cccc(c3)S(=O)(=O)Nc3nc(cc(-c4c(C)cccc4C)n3)OC[C@H]2CC2(C(F)(F)F)CC2)C[C@]2(C[C@@H](CO)C2)C1` (single isomer, unassigned) [Compound 134]: the “Ent. B Max Activity (%)” value is “+++ (+++ is >60%)”. Moreover, the EC50 (read-out: Ent. B EC50) was < 1000 nM.

As for `COC(=O)NC1CC(N2C(=O)c3cccc(c3)S(=O)(=O)Nc3nc(cc(-c4c(C)cccc4C)n3)OC[C@H]2CC(C)(C)C(F)(F)F)C1` (stereo partly shown) [Compound 418], the “Ent. B Max Activity (%)” value (Table 9) is “+++ (+++ is >60%)”. The EC50 (Table 9, read-out: Ent. B EC50) is < 1000 nM.

With `Cc1cccc(C)c1-c1cc2nc(n1)NS(=O)(=O)c1cccc(c1)C(=O)N([C@H]1C[C@](C)(NC(=O)OC(C)C)C1)[C@H](CC(C)(C)C)CO2` (stereo in doubt) [Compound 244], the “Ent. B Max Activity (%)” value (Table 10) is given as “++ (++ is 30-60%)”. The EC50 under setting [1] was < 1000 nM.

On to `Cc1cccc(C)c1-c1cc2nc(n1)NS(=O)(=O)c1cccc(c1)C(=O)N([C@@H]1CC[C@@H]1C1CC1)[C@H](CC(C)(C)C)CO2` (single isomer, unassigned) [Compound 147], for which the “Ent. B Max Activity (%)” value (Table 10) is on record as “++ (++ is 30-60%)”. For the same compound, the EC50 under setting [1] is < 1000 nM.

In the case of `Cc1cccc(C)c1-c1cc2nc(n1)NS(=O)(=O)c1cccc(c1)C(=O)N(C1CC3(C1)CC(C(C)(C)O)C3)[C@H](CC(C)(C)C)CO2` (single isomer, unassigned) [Compound 117], the “Ent. B Max Activity (%)” value (Table 10) was “+++ (+++ is >60%)”. Under setting [1], the EC50 is < 1000 nM.

Consider `Cc1cccc(C)c1-c1cc2nc(n1)NS(=O)(=O)c1cccc(c1)C(=O)N(C1CC(NC(=O)OC(C)C)C1)[C@H](CC(C)(C)C)CO2` (stereo in doubt) [Compound 450], for which the “Ent. B Max Activity (%)” value (Table 9) is on record as “+++ (+++ is >60%)”. Also, the EC50 (Table 9, read-out: Ent. B EC50) is < 1000 nM.

Regarding `[H][C@]1(N2C(=O)c3cccc(c3)S(=O)(=O)Nc3nc(cc(-c4c(C)cccc4C)n3)OC[C@H]2CC(C)C)C[C@@]2(C[C@H](N(C)CCOC)C2)C1` (stereo partly shown) [Compound 285], the “Ent. B Max Activity (%)” value (Table 9) is “+++ (+++ is >60%)”. Moreover, where the note is “Table 9, read-out: Ent. B EC50”, the EC50 was < 1000 nM.

On to `Cc1cccc(C)c1-c1cc2nc(n1)NS(=O)(=O)c1cccc(c1)C(=O)N(C1CN(C(=O)OC(C)C)C(C)(C)C1)[C@H](CC(C)C)CO2` (stereo partly drawn) [Compound 110, Propan-2-yl 4-[(11R)-6-(2,6-dimethylphenyl)-11-(2-methylpropyl)-2,2,13-trioxo-9-oxa-2λ^6-thia-3,5,12,19-tetraazatricyclo[12.3.1.14,8]nonadeca-1(17),4(19),5,7,14(18),15-hexaen-12-yl]-2,2-dimethylpyrrolidine-1-carboxylate], for which the “Ent. B Max Activity (%)” value (Table 9) was “+++ (+++ is >60%)”. The EC50 (Table 9, read-out: Ent. B EC50) is < 1000 nM.

On to `Cc1cccc(C)c1-c1cc2nc(n1)NS(=O)(=O)c1cccc(c1)C(=O)N([C@H]1C[C@@H](OC(F)(F)F)C1)[C@H](CC1(C(F)(F)F)CC1)CO2` (stereo in doubt) [Compound 212], for which the “Ent. B Max Activity (%)” value (Table 10) is recorded as “++ (++ is 30-60%)”. For the same compound, the EC50 under setting [1] is < 1000 nM.

Turning to `[H][C@]1(N2C(=O)c3cccc(c3)S(=O)(=O)Nc3nc(cc(-c4c(C)cccc4C)n3)OC[C@H]2CC(C)C)C[C@@]2(C[C@H](C(C)(C)O)C2)C1` (stereo in doubt) [Compound 413], the “Ent. B Max Activity (%)” value (Table 10) is “+++ (+++ is >60%)”. Besides, under setting [1], the EC50 is < 1000 nM.

As to `Cc1cccc(C)c1-c1cc2nc(n1)NS(=O)(=O)c1cccc(c1)C(=O)N(C1CC3(CCN(CCOC(C)C)CC3)C1)[C@H](CC(C)(C)C(F)(F)F)CO2` [Compound 189, (11R)-6-(2,6-dimethylphenyl)-12-{7-[2-(propan-2-yloxy)ethyl]-7-azaspiro[3.5]nonan-2-yl}-11-(3,3,3-trifluoro-2,2-dimethylpropyl)-9-oxa-2λ^6-thia-3,5,12,19-tetraazatricyclo[12.3.1.14,8]nonadeca-1(17),4(19),5,7,14(18),15-hexaene-2,2,13-trione], the “Ent. B Max Activity (%)” value (Table 9) is listed as “+++ (+++ is >60%)”. Where the note is “Table 9, read-out: Ent. B EC50”, the EC50 was < 1000 nM.

As to `CC(C)C[C@@H]1COc2cc(-c3c(F)cccc3C(F)(F)F)nc(n2)NS(=O)(=O)c2cccc(c2)C(=O)N1C1CC2(CC2)C1` [Compound 202], where the note is “Table 10”, the “Ent. B Max Activity (%)” value was “++ (++ is 30-60%)”. In addition, the EC50 under setting [1] is < 1000 nM.

Turning to `CC(=O)N1CC2(CC(N3C(=O)c4cccc(c4)S(=O)(=O)Nc4nc(cc(-c5c(C)cccc5C)n4)OC[C@H]3CC3(C(F)(F)F)CC3)C2)C1` [Compound 452], the “Ent. B Max Activity (%)” value (Table 9) was “+++ (+++ is >60%)”. Besides, the EC50 (Table 9, read-out: Ent. B EC50) was < 1000 nM.

As to `Cc1cccc(C)c1-c1cc2nc(n1)NS(=O)(=O)c1cccc(c1)C(=O)N([C@@H]1CC[C@@H]1C1CC1)[C@H](CC(C)(C)C)CO2` (single isomer, unassigned) [Compound 148], the “Ent. B Max Activity (%)” value (Table 10) is “+++ (+++ is >60%)”. Further, the EC50 under setting [1] is < 1000 nM.

Regarding `CC(=O)N[C@H]1C[C@@H](N2C(=O)c3cccc(c3)S(=O)(=O)Nc3nc(cc(-c4c(C)cccc4C)n3)OC[C@H]2CC(C)C)C1` [Compound 366], the “Ent. B Max Activity (%)” value (Table 9) is given as “+++ (+++ is >60%)”. Under “Table 9, read-out: Ent. B EC50”, the concentration for a half-maximal effect (EC50) is < 1000 nM.

In the case of `Cc1cccc(C)c1-c1cc2nc(n1)NS(=O)(=O)c1cccc(c1)C(=O)N([C@H]1C[C@@H](N3CCCCC3)C1)[C@H](CC(C)C)CO2` [Compound 388], the “Ent. B Max Activity (%)” value (Table 9) was “+++ (+++ is >60%)”. Moreover, the EC50 (Table 9, read-out: Ent. B EC50) is < 1000 nM.

As for `COC(=O)NC1(C)CC2(CC(N3C(=O)c4cccc(c4)S(=O)(=O)Nc4nc(cc(-c5c(C)cccc5C)n4)OC[C@H]3CC(C)(C)C)C2)C1` (single isomer, unassigned) [Compound 96], the “Ent. B Max Activity (%)” value (Table 10) is on record as “++ (++ is 30-60%)”. Also, the EC50 under setting [1] is < 1000 nM.

Turning to `COCCNC1CC2(C1)CC(N1C(=O)c3cccc(c3)S(=O)(=O)Nc3nc(cc(-c4c(C)cccc4C)n3)OC[C@H]1CC(C)C)C2` (stereo in doubt) [Compound 287], the “Ent. B Max Activity (%)” value (Table 9) is “+++ (+++ is >60%)”. Where the note is “Table 9, read-out: Ent. B EC50”, the EC50 was < 1000 nM.

Regarding `Cc1cccc(C)c1-c1cc2nc(n1)NS(=O)(=O)c1cccc(c1)C(=O)N(C1CC(N3CCN(C)C(=O)C3)C1)[C@H](CC(C)C)CO2` (stereo partly shown) [Compound 384], the “Ent. B Max Activity (%)” value (Table 9) is given as “+++ (+++ is >60%)”. Moreover, where the note is “Table 9, read-out: Ent. B EC50”, the EC50 is < 1000 nM.

As to `[H][C@]1(N2C(=O)c3cccc(c3)S(=O)(=O)Nc3nc(cc(-c4c(C)cccc4C)n3)OC[C@H]2CC(C)C)C[C@@]2(C[C@H](NC(=O)OC(C)C)C2)C1` (single isomer, unassigned) [Compound 124], the “Ent. B Max Activity (%)” value (Table 10) is on record as “+++ (+++ is >60%)”. The 50% effective concentration (EC50) under setting [1] is < 1000 nM.

Regarding `Cc1cccc(C)c1-c1cc2nc(n1)NS(=O)(=O)c1cccc(c1)C(=O)N([C@H]1C[C@@H](N3C[C@@H](C)CC3(C)C)C1)[C@H](CC(C)C)CO2` [Compound 359], the “Ent. B Max Activity (%)” value (Table 10) is “++ (++ is 30-60%)”. For the same compound, the EC50 under setting [1] was < 1000 nM.

`Cc1cccc(C)c1-c1cc2nc(n1)NS(=O)(=O)c1cccc(c1)C(=O)N(C1CC3(CCNC(=O)C3)C1)[C@H](CC(C)C)CO2` (stereo partly shown) [Compound 201]: the “Ent. B Max Activity (%)” value (Table 10) was “++ (++ is 30-60%)”. Also, the EC50 under setting [1] was < 1000 nM.

The term EC50 denotes the midpoint of the concentration-response curve.
